# From patent US11629171B2, “Beta-hairpin peptidomimetics” (POLYPHOR AG, priority 2017, dated 2023)
# Where a SMILES comes first, the peptide text is derived from it. Bridges are numbered along the chain shown (N, C = ends). Roman numbers before positions name the chains, in order. [ ]: non-standard residue; d: D form. The star is where a group is joined. Tle = CC(C)(C)[C@H](N)C(=O)O; Hiv = CC(C)[C@H](O)C(=O)O; dDab = NCC[C@@H](N)C(=O)O; NHCH(CH2OH)2 = OCC(CO)N*; Nle = CCCC[C@H](N)C(=O)O; Orn = NCCC[C@H](N)C(=O)O; Dab = NCC[C@H](N)C(=O)O; Abu = CC[C@H](N)C(=O)O; Dap = NC[C@H](N)C(=O)O
# Key:
# [1] = system: human red blood cells (hRBC); test: Hemolysis; type: cell-based; conditions: red cells of human, 1 h, 200
# In short: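 Hemoglobin release from PBS-washed hRBC at 20% (v/v), incubated 1 h at 37° C with peptides at 200 μg/mL, is measured at 540 nm. Values are blank corrected and given as a fraction of Triton X-100 lysis × 100%.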
# [2] = system: Escherichia coli ATCC 25922; type: cell-based; conditions: ATCC 25922
# In short: (§1)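 Peptides are tested in serial two-fold dilutions against about 10^6 CFU/mL in MH-II broth containing 0.002% P-80 (v/v, final). Plates incubate 18-20 h at 35° C, and the MIC is the lowest peptide level (μg/mL) showing no visible growth.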
# Escherichia coli 926415 = type: cell-based; conditions: 926415
# In short: as §1
# [3] = system: Klebsiella pneumoniae SSI #3010; type: cell-based; conditions: SSI #3010
# In short: as §1
# [4] = system: Acinetobacter baumannii DSM 30008; type: cell-based; conditions: DSM 30008
# In short: as §1
# [5] = system: Acinetobacter baumannii 872842; type: cell-based; conditions: 872842
# In short: as §1
# [6] = system: Pseudomonas aeruginosa ATCC 27853; type: cell-based; conditions: ATCC 27853
# In short: as §1
# [7] = system: Klebsiella pneumoniae 968733; type: cell-based; conditions: 968733
# In short: as §1
# [8] = system: Enterobacter cloacae 848840; type: cell-based; conditions: 848840
# In short: as §1
# male ICR mice = test: Tolerability in a mouse model (Maximum Tolerated Dose assay); type: in vivo; conditions: groups of 3
# In short: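 Groups of 3 male ICR mice weighing 23±3 g received two subcutaneous doses, 12 h apart, of 30 or 40 mg/kg in saline adjusted to pH 6.5-7.6. Observation for 30 min after each dose covered autonomic effects and acute toxicity, including death.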
# [9] = 2 × 40 mg/kg s.c. at a 12-hr interval
# [10] = 2 × 30 mg/kg s.c. at a 12-hr interval
Compound,Hemolysis at 200 μg/mL [1],Escherichia coli ATCC 25922 MIC [2],MIC (Escherichia coli 926415),Klebsiella pneumoniae SSI #3010 MIC [3],Acinetobacter baumannii DSM 30008 MIC [4],MIC [5],Pseudomonas aeruginosa ATCC 27853 MIC [6],MIC [7],MIC [8],Mortality and dose (male ICR mice; [9]),MIC [2],MIC [3],MIC [4],MIC [6],Mortality and dose (male ICR mice; [10])
CC(C)C[C@@H]1NC(=O)[C@@H](CC(C)C)NC(=O)[C@H](CCN)NC(=O)[C@@H](NC(=O)[C@H](CN)NC(=O)[C@@H](NC(=O)[C@H](CCN)NC(=O)CC[C@@H]2NC(=O)[C@H](CCN)NC(=O)[C@H](Cc3ccc(O)cc3)NC(=O)[C@@H](NC(=O)[C@@H](O)C(C)C)CSSC[C@@H](C(=O)N[C@@H](CO)C(=O)N[C@H](C)C(N)=O)NC(=O)[C@H](C(C)C)NC(=O)[C@H](CO)NC(=O)[C@H](Cc3c[nH]c4ccccc34)NC(=O)[C@H](CO)NC(=O)[C@@H](CCN)NC2=O)[C@@H](C)O)CCNC(=O)[C@H]([C@@H](C)O)NC(=O)[C@H](CCN)NC(=O)[C@H](CCN)NC1=O [Ex. 379] (I: H-[Hiv]CY[Dab]E[dDab]SWSVCS[dA]-NH2 / II: [Dab]T[Dap][Dab][Dab][dL]L[Dab][Dab]T; disulfide I:2-I:11; amide I:5-II:N; lactam II:4-II:C),<1%,0.03125 µg/mL,0.25 µg/mL,0.0625 µg/mL,0.0625 µg/mL,0.125 µg/mL,0.125 µg/mL,0.25 µg/mL,1 µg/mL,0/3 died at 2 × 40 mg/kg,,,,,
"CC(=O)N[C@H](C(=O)N[C@H]1CCNC(=O)C[C@@H](C(=O)N[C@@H](CO)C(N)=O)NC(=O)[C@H](C(C)C)NC(=O)[C@H](CO)NC(=O)[C@H](Cc2c[nH]c3ccccc23)NC(=O)[C@H](CO)NC(=O)[C@@H](CCN)NC(=O)[C@H](CCC(=O)N[C@@H](CCN)C(=O)N[C@H](C(=O)N[C@@H](CN)C(=O)N[C@H]2CCNC(=O)[C@H]([C@@H](C)O)NC(=O)[C@H](CCN)NC(=O)[C@H](CCN)NC(=O)[C@H](CC(C)C)NC(=O)[C@@H](CC(C)C)NC(=O)[C@H](CCN)NC2=O)[C@@H](C)O)NC(=O)[C@H](CCN)NC(=O)[C@H](Cc2ccc(O)cc2)NC1=O)C(C)C [Ex. 341] (I: Ac-V[Dab]Y[Dab]E[dDab]SWSVDS-NH2 / II: [Dab]T[Dap][Dab][Dab][dL]L[Dab][Dab]T; lactam I:2-I:11, II:4-II:C; amide I:5-II:N)",<1%,0.0625 µg/mL,0.5 µg/mL,0.0625 µg/mL,0.0625 µg/mL,0.25 µg/mL,0.125 µg/mL,1 µg/mL,2 µg/mL,0/3 died at 2 × 40 mg/kg,,,,,
CC(=O)N[C@H](C(=O)N[C@H]1CSSC[C@@H](C(=O)NC(CO)CO)NC(=O)[C@H](C(C)C)NC(=O)[C@H](CO)NC(=O)[C@H](Cc2c[nH]c3ccccc23)NC(=O)[C@H](CO)NC(=O)[C@@H](CCN)NC(=O)[C@H](CCC(=O)N[C@@H](CCN)C(=O)N[C@H](C(=O)N[C@@H](CN)C(=O)N[C@H]2CCNC(=O)[C@H]([C@@H](C)O)NC(=O)[C@H](CCN)NC(=O)[C@H](CCN)NC(=O)[C@H](CC(C)C)NC(=O)[C@@H](CC(C)C)NC(=O)[C@H](CCN)NC2=O)[C@@H](C)O)NC(=O)[C@H](CCN)NC(=O)[C@H](Cc2ccc(O)cc2)NC1=O)C(C)C [Ex. 116] (I: Ac-VCY[Dab]E[dDab]SWSVC-{NHCH(CH2OH)2} / II: [Dab]T[Dap][Dab][Dab][dL]L[Dab][Dab]T; disulfide I:2-I:11; amide I:5-II:N; lactam II:4-II:C),<1%,,0.125 µg/mL,,,0.0625 µg/mL,,0.25 µg/mL,0.03125 µg/mL,,0.03125 µg/mL,0.03125 µg/mL,0.03125 µg/mL,0.125 µg/mL,0/3 died at 2 × 30 mg/kg
CCCC[C@H](NC(C)=O)C(=O)N[C@H]1CSSC[C@@H](C(=O)N[C@H](C(N)=O)[C@@H](C)O)NC(=O)[C@H]([C@@H](C)CC)NC(=O)[C@H](CO)NC(=O)[C@H](Cc2c[nH]c3ccccc23)NC(=O)[C@H](CCN)NC(=O)[C@@H](CCN)NC(=O)[C@H](CCC(=O)N[C@@H](CCN)C(=O)N[C@H](C(=O)N[C@@H](CN)C(=O)N[C@H]2CCNC(=O)[C@H]([C@@H](C)O)NC(=O)[C@H](CCN)NC(=O)[C@H](CCN)NC(=O)[C@H](CC)NC(=O)[C@@H](CC(C)C)NC(=O)[C@H](CCN)NC2=O)[C@@H](C)O)NC(=O)[C@H](CO)NC(=O)[C@H](Cc2ccc(O)cc2)NC1=O [Ex. 259] (I: Ac-[Nle]CYSE[dDab][Dab]WSICT-NH2 / II: [Dab]T[Dap][Dab][Dab][dL][Abu][Dab][Dab]T; disulfide I:2-I:11; amide I:5-II:N; lactam II:4-II:C),2%,,0.125 µg/mL,,,0.03125 µg/mL,,0.0625 µg/mL,0.0625 µg/mL,,0.01562 µg/mL,0.03125 µg/mL,0.01562 µg/mL,0.0625 µg/mL,0/3 died at 2 × 30 mg/kg
CC(C)C[C@@H]1NC(=O)[C@@H](CC(C)C)NC(=O)[C@H](CCN)NC(=O)[C@@H](NC(=O)[C@H](CN)NC(=O)[C@@H](NC(=O)[C@H](CCN)NC(=O)CC[C@H]2NC(=O)[C@H](CCCN)NC(=O)[C@H](CCN)NC(=O)[C@H](Cc3ccc(O)cc3)NC(=O)[C@@H](NC(=O)[C@@H](O)C(C)C)CSSC[C@@H](C(=O)N[C@H](C(N)=O)[C@@H](C)O)NC(=O)[C@H](C(C)(C)C)NC(=O)[C@H](CO)NC(=O)[C@H](Cc3c[nH]c4ccccc34)NC(=O)[C@H]([C@@H](C)O)NC2=O)[C@@H](C)O)CCNC(=O)[C@H]([C@@H](C)O)NC(=O)[C@H](CCN)NC(=O)[C@H](CCN)NC1=O [Ex. 161] (I: H-[Hiv]CY[Dab][Orn][dE]TWS[Tle]CT-NH2 / II: [Dab]T[Dap][Dab][Dab][dL]L[Dab][Dab]T; disulfide I:2-I:11; amide I:6-II:N; lactam II:4-II:C),1%,,0.5 µg/mL,,,0.25 µg/mL,,0.25 µg/mL,1 µg/mL,,0.125 µg/mL,0.125 µg/mL,0.125 µg/mL,0.25 µg/mL,0/3 died at 2 × 30 mg/kg
CC(=O)N[C@H](C(=O)N[C@H]1CSSC[C@@H](C(=O)N[C@@H](CO)C(N)=O)NC(=O)[C@H](C(C)C)NC(=O)[C@H](CO)NC(=O)[C@H](Cc2c[nH]c3ccccc23)NC(=O)[C@H](CCC(=O)N[C@@H](CCN)C(=O)N[C@H](C(=O)N[C@@H](CN)C(=O)N[C@H]2CCNC(=O)[C@H]([C@@H](C)O)NC(=O)[C@H](CCN)NC(=O)[C@H](CCN)NC(=O)[C@H](CC(C)C)NC(=O)[C@@H](CC(C)C)NC(=O)[C@H](CCN)NC2=O)[C@@H](C)O)NC(=O)[C@@H](CCN)NC(=O)[C@H](C)NC(=O)[C@H](CCN)NC(=O)[C@H](Cc2ccc(O)cc2)NC1=O)C(C)C [Ex. 361] (I: Ac-VCY[Dab]A[dDab]EWSVCS-NH2 / II: [Dab]T[Dap][Dab][Dab][dL]L[Dab][Dab]T; disulfide I:2-I:11; amide I:7-II:N; lactam II:4-II:C),<1%,0.0625 µg/mL,0.125 µg/mL,0.0625 µg/mL,0.0625 µg/mL,0.0625 µg/mL,0.125 µg/mL,0.125 µg/mL,0.0625 µg/mL,0/3 died at 2 × 40 mg/kg,,,,,
CC[C@@H]1NC(=O)[C@@H](CC(C)C)NC(=O)[C@H](CCN)NC(=O)[C@@H](NC(=O)[C@H](CN)NC(=O)[C@@H](NC(=O)[C@H](CCN)NC(=O)CC[C@@H]2NC(=O)[C@H](CCN)NC(=O)[C@H](Cc3ccc(O)cc3)NC(=O)[C@@H](NC(=O)[C@@H](O)C(C)C)CSSC[C@@H](C(=O)N[C@@H](CO)C(=O)N[C@H](CO)C(N)=O)NC(=O)[C@H]([C@@H](C)CC)NC(=O)[C@H](CO)NC(=O)[C@H](Cc3c[nH]c4ccccc34)NC(=O)CNC(=O)[C@@H](CCN)NC2=O)[C@@H](C)O)CCNC(=O)[C@H]([C@@H](C)O)NC(=O)[C@H](CCN)NC(=O)[C@H](CCN)NC1=O [Ex. 376] (I: H-[Hiv]CY[Dab]E[dDab]GWSICS[dS]-NH2 / II: [Dab]T[Dap][Dab][Dab][dL][Abu][Dab][Dab]T; disulfide I:2-I:11; amide I:5-II:N; lactam II:4-II:C),<1%,0.0625 µg/mL,0.25 µg/mL,0.0625 µg/mL,0.0625 µg/mL,0.25 µg/mL,0.125 µg/mL,0.5 µg/mL,0.0625 µg/mL,0/3 died at 2 × 40 mg/kg,,,,,
